# What was measured:
# Human hair follicles = experiment: Human hair follicle growth assay; assay type: cell-based; conditions: for % Inhibition / reduction in growth rate: Day 6-Day 0, vs control
# Description: Human hair follicles in growth phase (anagen) were isolated from face-lift tissue under a dissecting scope using a scalpel and watchmakers forceps. The skin was sliced into thin strips exposing 2-3 rows of follicles that could readily be dissected. Follicles were placed into 0.5 mL Williams E medium (Life Technologies, Gaithersburg, Md.) supplemented with […] L-glutamine, 10 μg/mL insulin, 10 ng/mL hydrocortisone, 100 units penicillin, 0.1 mg/mL streptomycin and 0.25 μg/mL amphotericin B. The follicles were incubated in 24 well plates (1 follicle/well) at 37° C. in an atmosphere of 5% CO2 and 95% air. Hair follicles were videorecorded in the 24-well plates under the dissecting scope under a power of 20×. Typically, initial recordings were made on day 0 (day follicles were placed in culture) or day 1, and again on days 7 or 8. Hair follicle lengths were assessed using an image analysis software system (Computer Eyes and NIH Image).
# Alkaline phosphatase [1] = target: T1, Alkaline phosphatase (Mesocricetus auratus, UniProt A0A1U7QBN2); experiment: Alkaline phosphatase activity, hamster flank organ hair follicle enzyme; assay type: biochemical
# T1 construct: the supernatant was used as the enzyme source; from tissue; host or cells: whole hamster flank organs, homogenized, 12,000×g supernatant
# T1 sequence (A0A1U7QBN2 18-524): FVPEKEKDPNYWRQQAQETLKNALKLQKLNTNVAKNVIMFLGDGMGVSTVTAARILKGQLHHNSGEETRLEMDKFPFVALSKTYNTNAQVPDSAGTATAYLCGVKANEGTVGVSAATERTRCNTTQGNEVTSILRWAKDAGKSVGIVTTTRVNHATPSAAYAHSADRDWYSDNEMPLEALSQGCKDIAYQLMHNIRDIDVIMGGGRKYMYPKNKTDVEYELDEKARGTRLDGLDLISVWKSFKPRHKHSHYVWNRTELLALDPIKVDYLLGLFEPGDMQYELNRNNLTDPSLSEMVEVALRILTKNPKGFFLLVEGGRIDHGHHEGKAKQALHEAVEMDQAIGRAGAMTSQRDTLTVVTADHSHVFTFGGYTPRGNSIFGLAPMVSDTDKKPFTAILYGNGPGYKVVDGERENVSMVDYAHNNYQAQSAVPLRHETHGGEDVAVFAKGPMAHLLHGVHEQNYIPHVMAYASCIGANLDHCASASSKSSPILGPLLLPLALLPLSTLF
# Description: (§1) Alkaline phosphatase activity was determined using a kit supplied by Sigma Chemical Co. Whole flank organs from hamsters or isolated human hair follicles were homogenized in a Tris-sucrose buffer, pH 7.5, using a polytron. The homogenate was centrifuged at 12,000×g for 5 minutes in a microcentrifuge, and the supernatant was used as the enzyme source. The supernatant (0.1 mL) was added to a reaction mixture containing 0.5 mL substrate (p-nitophenol phosphate) and 0.5 mL reaction buffer (both reagents supplied in the kit). Inhibitors were added in a volume of 0.1 mL. Water was used as a negative control. Reaction mixtures were incubated for 30 minutes at 37° C. The reaction mixtures were then transferred to a tube containing 10 mL 0.05N NaOH. Absorbance was measured at a wavelength of 410 nm. Concentrated hydrochloric acid (0.2 mL) was added to each tube and tubes were mixed. Again, absorbance was measured at 410 nm. Absorbance values from the second measurement were substrated from the first measurement to give normalized alkaline phosphatase activity.
# Alkaline phosphatase [2] = target: T2, Alkaline phosphatase (Homo sapiens, UniProt P05186); experiment: Alkaline phosphatase activity, human hair follicle enzyme; assay type: biochemical
# T2 construct: the supernatant was used as the enzyme source; from tissue; host or cells: isolated human hair follicles, homogenized, 12,000×g supernatant
# T2 sequence (P05186 18-502 limits assumed): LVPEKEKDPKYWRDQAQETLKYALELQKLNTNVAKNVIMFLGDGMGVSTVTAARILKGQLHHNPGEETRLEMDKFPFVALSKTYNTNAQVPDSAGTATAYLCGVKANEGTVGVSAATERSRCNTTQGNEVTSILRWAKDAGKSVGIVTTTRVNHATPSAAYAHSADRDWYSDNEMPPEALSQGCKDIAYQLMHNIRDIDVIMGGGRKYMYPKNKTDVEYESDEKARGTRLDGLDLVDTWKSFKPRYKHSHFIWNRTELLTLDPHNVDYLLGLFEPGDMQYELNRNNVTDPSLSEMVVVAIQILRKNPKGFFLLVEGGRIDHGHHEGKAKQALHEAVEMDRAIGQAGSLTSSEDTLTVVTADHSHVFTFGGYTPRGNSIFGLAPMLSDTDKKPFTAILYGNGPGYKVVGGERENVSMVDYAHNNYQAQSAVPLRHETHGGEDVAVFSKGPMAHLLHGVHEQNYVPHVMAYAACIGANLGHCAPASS
# Description: as §1
# [3] = tested on: tissue nonspecific form of alkaline phosphatase; conditions: in several species; cited from earlier work
# [4] = tested on: tissue-specific form of alkaline phosphatase; conditions: Millan, Clinica Chimica Acta. 209:123-129, 1992; cited from earlier work
smiles,measurement,setting,value
"[Na+].[Na+].[Na+].[O]=[V]([O-])([O-])[O-] [Sodium Orthovanadate, sodium orthovanadate]",% Inhibition / reduction in growth rate,Human hair follicles; 0.1 mM,58 ± 8%
same,% Inhibition / reduction in growth rate,"Human hair follicles; 0.1 mM, listed as sodium orthovanadate",58±8%
same,Hair Follicle Length Increase (mm) (Day 6-Day 0),"Human hair follicles; 0.1 mM, control 0.77 ± .09 mm",0.32 ± .06 mm
same,IC50,"Alkaline phosphatase [1]; Flank Organ, Table 3, 30 minutes at 37° C.",40 µM
same,IC50,Alkaline phosphatase [1]; hamster hair follicle enzyme,40 µM
same,IC50,"Alkaline phosphatase [2]; Human Hair Follicle, Table 3, 30 minutes at 37° C.",75 µM
same,IC50,Alkaline phosphatase [2]; human hair follicle enzyme,75 µM
N=C(N)NCCCC[C@H](N)C(=O)O [L-homeoarginine],inhibition of tissue nonspecific alkaline phosphatase,[3],inhibitor of the tissue nonspecific form of alkaline phosphatase in several species
N[C@@H](Cc1ccccc1)C(=O)O [phenylalanine],inhibition of tissue-specific alkaline phosphatase,[4],inhibit the tissue-specific form of alkaline phosphatase in a stereoselective fashion in that only the L-form is active
N[C@@H](Cc1c[nH]c2ccccc12)C(=O)O [tryptophan],inhibition of tissue-specific alkaline phosphatase,[4],inhibit the tissue-specific form of alkaline phosphatase in a stereoselective fashion in that only the L-form is active
CC(C)C[C@H](N)C(=O)O [leucine],inhibition of tissue-specific alkaline phosphatase,[4],inhibit the tissue-specific form of alkaline phosphatase in a stereoselective fashion in that only the L-form is active
"c1ccc(C2CN3CCSC3=N2)cc1 (racemic) [Tetramisole, [±]-2,3,5,6-tetrahydro-6-phenyl-imidazo [2,1-b] thiazole]",Hair Follicle Length Increase (mm) (Day 6-Day 0),"Human hair follicles; 0.5 mM, control 1.08 ± .25 mm",0.63 ± .06 mm
same,inhibition at 500 µM,"Human hair follicles; Homo sapiens, read-out: % Inhibition of hair growth",42 ± 5%
same,IC50,Alkaline phosphatase [1]; hamster hair follicle enzyme,125 µM
